# Measurements published in patent US20230121086A1, “RORgT INHIBITOR, PREPARATION METHOD THEREOF AND USE THEREOF” (SUNSHINE LAKE PHARMA CO., LTD., priority 2020, published 2023).
# Target: T1, RORγt (Homo sapiens, UniProt P51449)
# T1 construct: […]
# T1 sequence (P51449 269-508 limits assumed): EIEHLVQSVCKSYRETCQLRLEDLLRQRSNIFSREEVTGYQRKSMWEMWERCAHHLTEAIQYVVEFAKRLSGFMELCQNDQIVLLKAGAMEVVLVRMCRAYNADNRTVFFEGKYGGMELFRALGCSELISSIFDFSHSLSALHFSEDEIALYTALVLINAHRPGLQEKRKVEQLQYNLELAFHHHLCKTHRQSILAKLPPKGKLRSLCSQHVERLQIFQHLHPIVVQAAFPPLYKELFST
# Test: Fluorescence resonance energy transfer (FRET) test, inhibitory activity of RORγt
# Format: biochemical
# Conditions: FRET, B-RORγt LBD / Biotin-SRC1; read-out: IC50
row,Compound,IC50 [nM]
1,"CCS(=O)(=O)c1ccc([C@H](CC#N)NC(=O)c2ccc(N3C[C@H](c4ccc(C(F)(F)F)cc4)CC[C@H]3COC(F)F)cc2F)cc1 [Example 111-1, N—((S)-2-cyano-1-(4-(ethylsulfonyl)phenyl)ethyl)-4-((2S,5S)-2-((difluoromethoxy)methyl)-5-(4-(trifluoromethyl)phenyl)piperidin-1-yl)-2-fluorobenzamide]",16
2,"CCS(=O)(=O)c1ccc([C@H](CC#N)NC(=O)c2ccc(N3C[C@@H](c4ccc(C(F)(F)F)cc4)CC[C@H]3COC(F)F)c(F)c2)cc1 [Example 113-2, N—((S)-2-cyano-1-(4-(ethylsulfonyl)phenyl)ethyl)-4-((2S,5R)-2-((difluoromethoxy)methyl)-5-(4-(trifluoromethyl)phenyl)piperidin-1-yl)-3-fluorobenzamide]",13
3,"CCS(=O)(=O)c1ccc([C@H](CC#N)NC(=O)c2ccc(N3C[C@@H](c4ccc(F)cc4)CC[C@H]3COC(F)F)cc2)cc1 [Example 114-2, N—((S)-2-cyano-1-(4-(ethylsulfonyl)phenyl)ethyl)-4-((2S,5R)-2-((difluoromethoxy)methyl)-5-(4-fluorophenyl)piperidin-1-yl)benzamide]",23
4,"CCS(=O)(=O)c1ccc([C@H](CC#N)NC(=O)c2ccc(N3C[C@H](c4ccccc4)CC[C@H]3COC(F)F)cc2)cc1 [Example 115-2, N—((S)-2-cyano-1-(4-(ethylsulfonyl)phenyl)ethyl)-4-((2S,5S)-2-((difluoromethoxy)methyl)-5-phenylpiperidin-1-yl)benzamide]",26
5,"CCS(=O)(=O)c1ccc([C@H](CC#N)NC(=O)c2ccc(N3C[C@H](N4CCC(C(F)(F)F)CC4)CC[C@H]3COC(F)F)cc2)cc1 [Example 117-2, N—((S)-2-cyano-1-(4-(ethylsulfonyl)phenyl)ethyl)-4-((3′R,6′S)-6′-((difluoromethoxy)methyl)-4-(trifluoromethyl)-(1,3′-bipiperidin)-1′-yl)benzamide]",26
6,"CCS(=O)(=O)c1ccc([C@H](CC#N)NC(=O)c2ccc(N3C[C@H](O)C[C@H]3COC(F)F)cc2)cc1 [Example 131, N—((S)-2-cyano-1-(4-(ethylsulfonyl)phenyl)ethyl)-4-((2S,4R) ((difluoromethoxy)methyl)-4-hydroxypyrrolidin-1-yl)benzamide]",120
7,"CCS(=O)(=O)c1ccc([C@H](CC#N)NC(=O)c2ccc(C(O)(C(F)(F)F)C(F)(F)F)cc2)cc1 [Example 143, (S)—N-(2-cyano-1-(4-(ethylsulfonyl)phenyl)ethyl)-4-(1,1,1,3,3,3-hexafluoro-2-hydroxypropan-2-yl)benzamide]",104
8,"CCS(=O)(=O)c1ccc([C@H](CNC(=O)OC)NC(=O)c2ccc(N3C[C@@H](Oc4ccc(C(F)(F)F)cc4)C[C@H]3COC(F)F)cc2)cc1 [Example 147, methyl ((R)-2-(4-((2S,4S)-2-((difluoromethoxy)methyl)-4-(4-(trifluoromethyl)phenoxy)pyrrolidin-1-yl)benzoylamino)-2-(4-(ethylsulfonyl)phenyl)ethyl)carbamate]",18.2
9,CCS(=O)(=O)c1ccc([C@H](CNC=O)NC(=O)c2ccc(N3C[C@@H](Oc4ccc(C(F)(F)F)cc4)C[C@H]3COC(F)F)cc2)cc1 [Example 148],15.2
10,"CCS(=O)(=O)c1ccc([C@H](COC(=O)NC)NC(=O)c2ccc(N3C[C@@H](Oc4ccc(C(F)(F)F)cc4)C[C@H]3COC(F)F)cc2)cc1 [Example 150, (R)-2-(4-((2S,4S)-2-((difluoromethoxy)methyl)-4-(4-(trifluoromethyl)phenoxy)pyrrolidin-1-yl)benzoylamino)-2-(4-(ethylsulfonyl)phenyl)ethyl methylcarbamate]",10
11,"[2H]C([2H])([2H])OC[C@@H]1C[C@H](Oc2ccc(C(F)(F)F)cc2)CN1c1ccc(C(=O)N[C@@H](CC#N)c2ccc(S(=O)(=O)CC)cc2)cc1 [Example 151, N—((S)-2-cyano-1-(4-(ethylsulfonyl)phenyl)ethyl)-4-((2S,4S)-2-((3,3,3-d3-methoxy)methyl)-4-(4-(trifluoromethyl)phenoxy)pyrrolidin-1-yl)benzamide]",8.7
12,"CCS(=O)(=O)c1ccc([C@H](CC#N)NC(=O)c2ccc(N3C[C@@H](Oc4ccc(-n5cccn5)cc4)C[C@H]3COC(F)F)cc2)cc1 [Example 152, 4-((2S,4S)-4-(4-(1H-pyrazol-1-yl)phenoxy)-2-((difluoromethoxy)methyl)pyrrolidin-1-yl)-N—((S)-2-cyano-1-(4-(ethylsulfonyl)phenyl)ethyl)benzamide]",13.2
13,"CCS(=O)(=O)c1ccc([C@H](COC(=O)N(C)C)NC(=O)c2ccc(N3C[C@@H](Oc4ccc(C(F)(F)F)cc4)C[C@H]3COC(F)F)cc2)cc1 [Example 154, (R)-2-(4-((2S,4S)-2-((difluoromethoxy)methyl)-4-(4-(trifluoromethyl)phenoxy)pyrrolidin-1-yl)benzoylamino)-2-(4-(ethylsulfonyl)phenyl)ethyl dimethylcarbamate]",47
14,"CCS(=O)(=O)c1ccc([C@H](COC(=O)NC)NC(=O)c2ccc(N3C[C@@H](Oc4ccc(OC(F)(F)F)cn4)C[C@H]3COC(F)F)cc2)cc1 [Example 155, (R)-2-(4-((2S,4S)-2-((difluoromethoxy)methyl)-4-((5-(trifluoromethoxy)pyridin-2-yl)oxy)pyrrolidin-1-yl)benzoylamino)-2-(4-(ethylsulfonyl)phenyl)ethyl methylcarbamate]",11
15,"CCS(=O)(=O)c1ccc([C@H](CC#N)NC(=O)c2ccc(N3C[C@@H](Oc4ccc(-n5cc(C)cn5)cc4)C[C@H]3COC(F)F)cc2)cc1 [Example 159, N—((S)-2-cyano-1-(4-(ethylsulfonyl)phenyl)ethyl)-4-((2S,4S)-2-((difluoromethoxy)methyl)-4-(4-(4-methyl-1H-pyrazol-1-yl)phenoxy)pyrrolidin-1-yl) benzamide]",10.2
16,"CCS(=O)(=O)c1ccc([C@H](CC#N)NC(=O)c2ccc(N3C[C@@H](Oc4ccc(-n5ccc(F)n5)cc4)C[C@H]3COC(F)F)cc2)cc1 [Example 162, N—((S)-2-cyano-1-(4-(ethylsulfonyl)phenyl)ethyl)-4-((2S,4S)-2-((difluoromethoxy)methyl)-4-(4-(3-fluoro-1H-pyrazol-1-yl)phenoxy)pyrrolidin-1-yl)benzamide]",9.9

# Now those with a lower IC50, led by results:
row,IC50 [nM],Compound
1,7.7,"CCS(=O)(=O)c1ccc([C@H](COC(N)=O)NC(=O)c2ccc(N3C[C@@H](Oc4ccc(C(F)(F)F)cc4)C[C@H]3COC(F)F)cc2)cc1 [Example 149, (R)-2-(4-((2S,4S)-2-((difluoromethoxy)methyl)-4-(4-(trifluoromethyl)phenoxy)pyrrolidin-1-yl)benzoylamino)-2-(4-(ethylsulfonyl)phenyl)ethyl carbamate]"
2,7.4,CCS(=O)(=O)c1ccc([C@H](CC#N)NC(=O)c2ccc(N3C[C@@H](Oc4ccc(-n5cccn5)cn4)C[C@H]3COC(F)F)cc2)cc1 [Example 158]
3,7,"CCC(F)(F)OC[C@H]1CC[C@@H](c2ccc(C(F)(F)F)cc2)CN1c1ccc(C(=O)N[C@H](CC#N)c2ccc(S(=O)(=O)CC)cc2)cc1 [Example 110-2, N—((R)-2-cyano-1-(4-(ethylsulfonyl)phenyl)ethyl)-4-((2R,5S)-2-((1,1-difluoropropoxy)methyl)-5-(4-(trifluoromethyl)phenyl)piperidin-1-yl)benzamide]"
4,6.9,"CCS(=O)(=O)c1ccc([C@H](CC#N)NC(=O)c2ccc(N3C[C@@H](Oc4ccc(-n5nccn5)cc4)C[C@H]3COC(F)F)cc2)cc1 [Example 157, 4-((2S,4S)-4-(4-(2H-1,2,3-triazol-2-yl)phenoxy)-2-((difluoromethoxy)methyl)pyrrolidin-1-yl)-N—((S)-2-cyano-1-(4-(ethylsulfonyl)phenyl)ethyl)benzamide]"
5,5.6,"CCS(=O)(=O)c1ccc([C@H](CC#N)NC(=O)c2ccc(N3C[C@@H](Oc4ccc(Cl)cn4)C[C@H]3COC(F)F)cc2)cc1 [Example 160, 4-((2S,4S)-4-((5-chloropyridin-2-yl)oxy)-2-((difluoromethoxy)methyl)pyrrolidin-1-yl)-N—((S)-2-cyano-1-(4-(ethylsulfonyl)phenyl)ethyl)benzamide]"
6,5.1,"CCS(=O)(=O)c1ccc([C@H](CC#N)NC(=O)c2ccc(N3C[C@@H](Oc4ccc(-n5ccc(C)n5)cc4)C[C@H]3COC(F)F)cc2)cc1 [Example 163, N—((S)-2-cyano-1-(4-(ethylsulfonyl)phenyl)ethyl)-4-((2S,4S)-2-((difluoromethoxy)methyl)-4-(4-(3-methyl-1H-pyrazol-1-yl)phenoxy)pyrrolidin-1-yl) benzamide]"
7,5,"CCS(=O)(=O)c1ccc([C@H](COC(N)=O)NC(=O)c2ccc(N3C[C@@H](Oc4ccc(Cl)cn4)C[C@H]3COC(F)F)cc2)cc1 [Example 153, (R)-2-(4-((2S,4S)-4-((5-chloropyridin-2-yl)oxy)-2-((difluoromethoxy)methyl)pyrrolidin-1-yl)benzoylamino)-2-(4-(ethylsulfonyl)phenyl)ethyl carbamate]"
8,3.1,"CCS(=O)(=O)c1ccc([C@H](COC(N)=O)NC(=O)c2ccc(N3C[C@@H](Oc4ccc(OC(F)(F)F)cn4)C[C@H]3COC(F)F)cc2)cc1 [Example 156, (R)-2-(4-((2S,4S)-2-((difluoromethoxy)methyl)-4-((5-(trifluoromethoxy)pyridin-2-yl)oxy)pyrrolidin-1-yl)benzoylamino)-2-(4-(ethylsulfonyl)phenyl)ethyl carbamate]"
9,3.1,"CCS(=O)(=O)c1ccc([C@H](COC(N)=O)NC(=O)c2cnc(N3C[C@@H](Oc4ccc(Cl)cn4)C[C@H]3COC(F)F)c(F)c2)cc1 [Example 164, (R)-2-(6-((2S,4S)-4-((5-chloropyridin-2-yl)oxy)-2-((difluoromethoxy)methyl)pyrrolidin-1-yl)-5-fluoronicotinamido)-2-(4-(ethylsulfonyl)phenyl)ethyl carbamate]"
